According to publication PMC10905675, “INX-315, a Selective CDK2 Inhibitor, Induces Cell Cycle Arrest and Senescence in Solid Tumors” (Cancer Discovery, 2023):

Legend:
Assay in all cases: SelectScreen LanthaScreen Binding
Details in all cases: INX-0315 at 100nM
[1] = molecular target: T1, RET G691S (Homo sapiens, UniProt P07949, G691S)
T1 construct: purchased Thermo Fisher Scientific SelectScreen (plus Nanosyn / Reaction Biology for CDK/cyclin lines)
Text: (§1) INX-315 was first evaluated in the SelectScreen Biochemical Kinase Profiling at Thermo Fisher Scientific (Madison, WI). The primary screen consisted of INX-315 dosed at a single concentration of 100 nmol/L in 1% DMSO across each platform within the SelectScreen array of assays, LanthaScreen Eu Kinase Binding Assay; AdaptaScreen; and Z'LyteScreen using preestablished conditions at Thermo Fisher Scientific as shown in Supplementary Table S2. […] The follow-up screen consisted of 10-point dose–response curves for INX-315 from 1 µmol/L to 0.0495 nmol/L.

[2] = molecular target: T2, PKMYT1 (Homo sapiens, UniProt Q99640)
T2 construct: purchased Thermo Fisher Scientific SelectScreen (plus Nanosyn / Reaction Biology for CDK/cyclin lines)
Text: as §1

[3] = molecular target: T3, CDK2/cyclin A1 (Homo sapiens, UniProt P24941)
T3 construct: host or cells: HEK293
Text: as §1

[4] = molecular target: T4, STK38 (NDR) (Homo sapiens, UniProt Q15208)
T4 construct: purchased Thermo Fisher Scientific SelectScreen (plus Nanosyn / Reaction Biology for CDK/cyclin lines)
Text: as §1

[5] = molecular target: T5, BMPR2 (Homo sapiens, UniProt Q13873)
T5 construct: purchased Thermo Fisher Scientific SelectScreen (plus Nanosyn / Reaction Biology for CDK/cyclin lines)
T5 sequence (Q13873 27-1038): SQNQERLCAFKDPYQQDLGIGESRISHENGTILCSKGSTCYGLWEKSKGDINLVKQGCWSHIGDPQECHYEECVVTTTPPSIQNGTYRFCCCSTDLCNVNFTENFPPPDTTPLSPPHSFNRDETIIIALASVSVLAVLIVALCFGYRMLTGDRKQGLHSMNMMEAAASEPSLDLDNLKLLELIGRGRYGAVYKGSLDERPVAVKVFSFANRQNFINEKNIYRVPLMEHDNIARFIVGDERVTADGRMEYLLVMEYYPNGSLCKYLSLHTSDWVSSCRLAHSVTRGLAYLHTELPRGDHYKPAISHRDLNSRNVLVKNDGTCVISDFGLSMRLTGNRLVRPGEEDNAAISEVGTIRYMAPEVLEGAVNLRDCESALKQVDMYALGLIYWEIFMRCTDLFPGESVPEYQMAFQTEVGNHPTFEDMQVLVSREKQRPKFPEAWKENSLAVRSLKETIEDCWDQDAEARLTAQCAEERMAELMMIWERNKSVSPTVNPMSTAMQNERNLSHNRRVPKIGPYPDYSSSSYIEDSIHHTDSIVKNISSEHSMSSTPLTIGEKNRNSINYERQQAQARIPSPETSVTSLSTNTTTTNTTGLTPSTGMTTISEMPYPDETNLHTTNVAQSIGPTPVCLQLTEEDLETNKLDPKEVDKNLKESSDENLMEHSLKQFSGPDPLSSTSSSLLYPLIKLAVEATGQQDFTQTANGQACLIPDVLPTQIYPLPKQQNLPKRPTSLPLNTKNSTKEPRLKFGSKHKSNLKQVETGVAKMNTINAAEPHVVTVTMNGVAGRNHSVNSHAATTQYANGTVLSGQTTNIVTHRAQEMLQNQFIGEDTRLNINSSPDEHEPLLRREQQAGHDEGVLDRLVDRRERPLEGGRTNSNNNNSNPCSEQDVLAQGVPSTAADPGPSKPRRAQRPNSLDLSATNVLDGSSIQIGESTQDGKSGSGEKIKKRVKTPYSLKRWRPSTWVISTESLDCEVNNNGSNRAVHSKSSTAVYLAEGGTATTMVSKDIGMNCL
Text: as §1

[6] = molecular target: T6, TEC (Homo sapiens, UniProt P42680)
T6 construct: purchased Thermo Fisher Scientific SelectScreen (plus Nanosyn / Reaction Biology for CDK/cyclin lines)
Text: as §1

[7] = molecular target: T7, ADCK3 (Homo sapiens, UniProt Q8NI60)
T7 construct: purchased Thermo Fisher Scientific SelectScreen (plus Nanosyn / Reaction Biology for CDK/cyclin lines)
Text: as §1

[8] = molecular target: T8, SIK1 (Homo sapiens, UniProt P57059)
T8 construct: purchased Thermo Fisher Scientific SelectScreen (plus Nanosyn / Reaction Biology for CDK/cyclin lines)
Text: as §1

[9] = molecular target: T9, TTK (Homo sapiens, UniProt P33981)
T9 construct: purchased Thermo Fisher Scientific SelectScreen (plus Nanosyn / Reaction Biology for CDK/cyclin lines)
Text: as §1

[10] = molecular target: T10, ANKK1 (Homo sapiens, UniProt Q8NFD2)
T10 construct: purchased Thermo Fisher Scientific SelectScreen (plus Nanosyn / Reaction Biology for CDK/cyclin lines)
Text: as §1

[11] = molecular target: T11, AMPK (A1/B2/G1) (Homo sapiens, UniProt Q13131)
T11 construct: purchased Thermo Fisher Scientific SelectScreen (plus Nanosyn / Reaction Biology for CDK/cyclin lines)
Text: as §1

[12] = tested on: FLT3 ITD
Text: as §1

[13] = molecular target: T12, MASTL (Homo sapiens, UniProt Q96GX5)
T12 construct: purchased Thermo Fisher Scientific SelectScreen (plus Nanosyn / Reaction Biology for CDK/cyclin lines)
Text: as §1

[14] = molecular target: T13, TNIK (Homo sapiens, UniProt Q9UKE5)
T13 construct: purchased Thermo Fisher Scientific SelectScreen (plus Nanosyn / Reaction Biology for CDK/cyclin lines)
Text: as §1

[15] = molecular target: T14, IRAK3 (Homo sapiens, UniProt Q9Y616)
T14 construct: purchased Thermo Fisher Scientific SelectScreen (plus Nanosyn / Reaction Biology for CDK/cyclin lines)
Text: as §1

[16] = molecular target: T15, ABL1 M351T (Homo sapiens, UniProt P00519, M351T)
T15 construct: purchased Thermo Fisher Scientific SelectScreen (plus Nanosyn / Reaction Biology for CDK/cyclin lines)
Text: as §1

[17] = molecular target: T16, VRK2 (Homo sapiens, UniProt Q86Y07)
T16 construct: purchased Thermo Fisher Scientific SelectScreen (plus Nanosyn / Reaction Biology for CDK/cyclin lines)
Text: as §1

[18] = molecular target: T17, MAPK9 (JNK2) (Homo sapiens, UniProt P45984)
T17 construct: purchased Thermo Fisher Scientific SelectScreen (plus Nanosyn / Reaction Biology for CDK/cyclin lines)
T17 sequence (P45984 whole entry): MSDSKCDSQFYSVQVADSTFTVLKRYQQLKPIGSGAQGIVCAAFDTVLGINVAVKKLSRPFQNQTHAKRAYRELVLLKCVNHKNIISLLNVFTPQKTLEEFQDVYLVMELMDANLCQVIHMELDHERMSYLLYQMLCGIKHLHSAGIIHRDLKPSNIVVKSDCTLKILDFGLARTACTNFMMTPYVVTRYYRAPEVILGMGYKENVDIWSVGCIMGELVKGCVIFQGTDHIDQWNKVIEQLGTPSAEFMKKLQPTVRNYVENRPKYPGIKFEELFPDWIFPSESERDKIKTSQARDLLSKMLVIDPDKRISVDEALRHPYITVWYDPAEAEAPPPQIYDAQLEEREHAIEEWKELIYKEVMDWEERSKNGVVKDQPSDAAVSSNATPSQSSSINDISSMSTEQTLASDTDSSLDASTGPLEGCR
Text: as §1

[19] = molecular target: T18, RET V804M (Homo sapiens, UniProt P07949, V804M)
T18 construct: purchased Thermo Fisher Scientific SelectScreen (plus Nanosyn / Reaction Biology for CDK/cyclin lines)
Text: as §1

[20] = molecular target: T19, ALK L1196M (Homo sapiens, UniProt Q9UM73, L1196M)
T19 construct: purchased Thermo Fisher Scientific SelectScreen (plus Nanosyn / Reaction Biology for CDK/cyclin lines)
T19 sequence (Q9UM73 19-1620 L1196M): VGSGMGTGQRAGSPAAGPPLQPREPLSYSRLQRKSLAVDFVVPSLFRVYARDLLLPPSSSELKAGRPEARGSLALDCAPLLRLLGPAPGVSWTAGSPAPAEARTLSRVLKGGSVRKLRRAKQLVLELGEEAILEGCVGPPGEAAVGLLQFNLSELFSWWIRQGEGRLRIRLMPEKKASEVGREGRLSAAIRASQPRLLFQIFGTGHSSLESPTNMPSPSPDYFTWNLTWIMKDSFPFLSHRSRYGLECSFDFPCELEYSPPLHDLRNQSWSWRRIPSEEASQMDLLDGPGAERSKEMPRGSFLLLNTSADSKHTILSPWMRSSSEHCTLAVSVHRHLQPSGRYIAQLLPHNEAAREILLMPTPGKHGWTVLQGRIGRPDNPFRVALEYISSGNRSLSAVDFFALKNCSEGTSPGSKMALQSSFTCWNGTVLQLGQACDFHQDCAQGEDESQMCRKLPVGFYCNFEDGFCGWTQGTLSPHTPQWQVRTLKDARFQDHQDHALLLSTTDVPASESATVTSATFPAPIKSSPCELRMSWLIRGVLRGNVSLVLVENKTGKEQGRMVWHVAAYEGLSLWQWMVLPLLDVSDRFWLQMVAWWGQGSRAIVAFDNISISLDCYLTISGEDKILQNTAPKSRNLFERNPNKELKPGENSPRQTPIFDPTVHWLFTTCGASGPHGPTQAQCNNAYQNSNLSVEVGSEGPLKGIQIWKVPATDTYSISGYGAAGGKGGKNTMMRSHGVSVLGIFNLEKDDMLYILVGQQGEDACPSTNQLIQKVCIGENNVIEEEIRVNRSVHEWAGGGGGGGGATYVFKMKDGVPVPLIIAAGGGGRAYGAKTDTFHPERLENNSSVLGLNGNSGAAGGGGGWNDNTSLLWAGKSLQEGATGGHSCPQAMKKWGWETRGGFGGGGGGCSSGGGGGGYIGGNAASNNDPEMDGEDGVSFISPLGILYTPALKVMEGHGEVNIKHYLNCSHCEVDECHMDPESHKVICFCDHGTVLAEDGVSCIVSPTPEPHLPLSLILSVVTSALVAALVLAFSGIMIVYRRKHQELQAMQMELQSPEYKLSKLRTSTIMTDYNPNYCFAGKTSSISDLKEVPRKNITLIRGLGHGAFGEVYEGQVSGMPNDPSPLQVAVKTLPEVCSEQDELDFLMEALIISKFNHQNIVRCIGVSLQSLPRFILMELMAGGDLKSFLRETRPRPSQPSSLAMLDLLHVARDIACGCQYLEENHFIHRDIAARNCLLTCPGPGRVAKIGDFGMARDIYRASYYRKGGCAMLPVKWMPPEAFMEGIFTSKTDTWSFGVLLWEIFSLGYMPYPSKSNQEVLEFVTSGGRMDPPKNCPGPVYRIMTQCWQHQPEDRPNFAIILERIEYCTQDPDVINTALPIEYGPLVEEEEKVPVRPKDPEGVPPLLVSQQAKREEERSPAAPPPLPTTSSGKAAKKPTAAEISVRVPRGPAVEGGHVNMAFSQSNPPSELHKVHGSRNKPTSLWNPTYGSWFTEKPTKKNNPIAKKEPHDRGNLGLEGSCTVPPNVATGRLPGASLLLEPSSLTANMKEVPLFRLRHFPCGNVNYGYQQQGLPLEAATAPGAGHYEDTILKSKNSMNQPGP
Text: as §1

[21] = molecular target: T20, AMPK (A1/B1/G2) (Homo sapiens, UniProt Q13131)
T20 construct: purchased Thermo Fisher Scientific SelectScreen (plus Nanosyn / Reaction Biology for CDK/cyclin lines)
Text: as §1

[22] = molecular target: T21, LIMK1 (Homo sapiens, UniProt P53667)
T21 construct: purchased Thermo Fisher Scientific SelectScreen (plus Nanosyn / Reaction Biology for CDK/cyclin lines)
Text: as §1

[23] = molecular target: T22, KIT N822K (Homo sapiens, UniProt P10721, N822K)
T22 construct: purchased Thermo Fisher Scientific SelectScreen (plus Nanosyn / Reaction Biology for CDK/cyclin lines)
Text: as §1

[24] = molecular target: T23, ACVR2B (Homo sapiens, UniProt Q13705)
T23 construct: purchased Thermo Fisher Scientific SelectScreen (plus Nanosyn / Reaction Biology for CDK/cyclin lines)
Text: as §1

[25] = molecular target: T24, AXL R499C (Homo sapiens, UniProt P30530, R499C)
T24 construct: purchased Thermo Fisher Scientific SelectScreen (plus Nanosyn / Reaction Biology for CDK/cyclin lines)
Text: as §1

[26] = molecular target: T25, LIMK2 (Homo sapiens, UniProt P53671)
T25 construct: purchased Thermo Fisher Scientific SelectScreen (plus Nanosyn / Reaction Biology for CDK/cyclin lines)
Text: as §1

[27] = molecular target: T26, NUAK2 (Homo sapiens, UniProt Q9H093)
T26 construct: purchased Thermo Fisher Scientific SelectScreen (plus Nanosyn / Reaction Biology for CDK/cyclin lines)
Text: as §1

[28] = molecular target: T27, FYN A (Homo sapiens, UniProt P06241)
T27 construct: purchased Thermo Fisher Scientific SelectScreen (plus Nanosyn / Reaction Biology for CDK/cyclin lines)
Text: as §1

[29] = molecular target: T28, KIT A829P (Homo sapiens, UniProt P10721, A829P)
T28 construct: purchased Thermo Fisher Scientific SelectScreen (plus Nanosyn / Reaction Biology for CDK/cyclin lines)
Text: as §1

[30] = molecular target: T29, ALK F1174L (Homo sapiens, UniProt Q9UM73, F1174L)
T29 construct: purchased Thermo Fisher Scientific SelectScreen (plus Nanosyn / Reaction Biology for CDK/cyclin lines)
T29 sequence (Q9UM73 19-1620 F1174L): as the sequence (Q9UM73 19-1620 L1196M) above, with F1156L, M1178L counted along it
Text: as §1

[31] = molecular target: T30, ACVR2A (Homo sapiens, UniProt P27037)
T30 construct: purchased Thermo Fisher Scientific SelectScreen (plus Nanosyn / Reaction Biology for CDK/cyclin lines)
T30 sequence (P27037 20-513): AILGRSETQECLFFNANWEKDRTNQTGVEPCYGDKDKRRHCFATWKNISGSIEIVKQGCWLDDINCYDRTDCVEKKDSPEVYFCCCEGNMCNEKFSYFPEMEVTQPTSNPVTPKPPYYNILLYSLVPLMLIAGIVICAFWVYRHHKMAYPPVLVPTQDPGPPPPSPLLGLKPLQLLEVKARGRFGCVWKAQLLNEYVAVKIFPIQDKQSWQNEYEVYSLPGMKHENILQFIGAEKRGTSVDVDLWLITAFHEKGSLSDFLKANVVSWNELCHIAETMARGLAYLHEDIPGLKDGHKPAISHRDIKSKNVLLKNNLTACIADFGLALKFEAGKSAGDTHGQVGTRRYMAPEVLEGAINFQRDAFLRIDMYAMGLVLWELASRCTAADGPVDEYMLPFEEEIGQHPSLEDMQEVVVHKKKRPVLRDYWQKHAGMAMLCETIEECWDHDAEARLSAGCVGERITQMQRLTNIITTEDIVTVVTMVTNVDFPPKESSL
Text: as §1

[32] = molecular target: T31, PRKACG (PRKAC gamma) (Homo sapiens, UniProt P22612)
T31 construct: purchased Thermo Fisher Scientific SelectScreen (plus Nanosyn / Reaction Biology for CDK/cyclin lines)
Text: as §1

[33] = molecular target: T32, CDC7/DBF4 (Homo sapiens, UniProt O00311)
T32 construct: purchased Thermo Fisher Scientific SelectScreen (plus Nanosyn / Reaction Biology for CDK/cyclin lines)
Text: as §1

[34] = molecular target: T33, MAP3K11 (MLK3) (Homo sapiens, UniProt Q16584)
T33 construct: purchased Thermo Fisher Scientific SelectScreen (plus Nanosyn / Reaction Biology for CDK/cyclin lines)
T33 sequence (Q16584 whole entry): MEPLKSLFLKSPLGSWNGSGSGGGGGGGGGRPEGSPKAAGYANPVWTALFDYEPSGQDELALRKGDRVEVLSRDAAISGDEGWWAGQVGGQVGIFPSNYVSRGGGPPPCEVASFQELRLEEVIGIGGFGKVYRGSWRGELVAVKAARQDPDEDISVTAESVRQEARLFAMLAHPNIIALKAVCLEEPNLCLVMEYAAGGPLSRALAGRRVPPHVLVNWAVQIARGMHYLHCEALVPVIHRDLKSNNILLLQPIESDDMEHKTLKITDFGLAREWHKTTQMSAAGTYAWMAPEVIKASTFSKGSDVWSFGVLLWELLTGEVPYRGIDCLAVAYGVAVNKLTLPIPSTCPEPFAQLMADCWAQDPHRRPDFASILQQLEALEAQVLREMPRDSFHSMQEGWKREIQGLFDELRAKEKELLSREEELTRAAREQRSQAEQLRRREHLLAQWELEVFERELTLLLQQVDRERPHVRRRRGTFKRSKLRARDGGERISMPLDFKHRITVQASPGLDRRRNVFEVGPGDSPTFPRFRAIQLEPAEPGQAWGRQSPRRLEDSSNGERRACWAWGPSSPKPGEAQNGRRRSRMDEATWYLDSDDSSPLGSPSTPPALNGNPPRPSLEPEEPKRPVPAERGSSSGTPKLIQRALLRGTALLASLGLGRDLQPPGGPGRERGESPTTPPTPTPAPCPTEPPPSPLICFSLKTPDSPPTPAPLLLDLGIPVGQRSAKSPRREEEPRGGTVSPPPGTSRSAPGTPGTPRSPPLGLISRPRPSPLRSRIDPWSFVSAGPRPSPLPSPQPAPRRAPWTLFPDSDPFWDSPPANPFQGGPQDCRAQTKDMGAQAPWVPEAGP
Text: as §1

[35] = molecular target: T34, ALK T1151_L1152insT (Homo sapiens, UniProt Q9UM73, INS1151T)
T34 construct: purchased Thermo Fisher Scientific SelectScreen (plus Nanosyn / Reaction Biology for CDK/cyclin lines)
T34 sequence (Q9UM73 with tags, fused parts or gaps INS1151T limits assumed): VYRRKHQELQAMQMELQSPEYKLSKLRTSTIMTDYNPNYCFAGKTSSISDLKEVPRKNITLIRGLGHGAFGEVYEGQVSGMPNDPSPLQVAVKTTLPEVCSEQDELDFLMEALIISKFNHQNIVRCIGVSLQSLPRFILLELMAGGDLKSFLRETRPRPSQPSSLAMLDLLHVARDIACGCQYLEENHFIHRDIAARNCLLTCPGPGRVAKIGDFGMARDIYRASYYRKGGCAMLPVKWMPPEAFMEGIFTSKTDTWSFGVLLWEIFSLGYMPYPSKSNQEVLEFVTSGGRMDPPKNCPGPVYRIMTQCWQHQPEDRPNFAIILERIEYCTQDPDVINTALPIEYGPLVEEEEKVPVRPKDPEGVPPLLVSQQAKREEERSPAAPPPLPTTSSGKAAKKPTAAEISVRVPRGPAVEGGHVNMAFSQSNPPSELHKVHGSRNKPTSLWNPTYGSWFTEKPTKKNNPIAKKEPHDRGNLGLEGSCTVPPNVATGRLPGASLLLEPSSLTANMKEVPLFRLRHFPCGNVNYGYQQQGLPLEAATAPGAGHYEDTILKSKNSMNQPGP
Text: as §1

[36] = molecular target: T35, KIT Y823D (Homo sapiens, UniProt P10721, Y823D)
T35 construct: purchased Thermo Fisher Scientific SelectScreen (plus Nanosyn / Reaction Biology for CDK/cyclin lines)
Text: as §1

[37] = molecular target: T36, STK32C (YANK3) (Homo sapiens, UniProt Q86UX6)
T36 construct: purchased Thermo Fisher Scientific SelectScreen (plus Nanosyn / Reaction Biology for CDK/cyclin lines)
Text: as §1

[38] = molecular target: T37, KIT D816V (Homo sapiens, UniProt P10721, D816V)
T37 construct: purchased Thermo Fisher Scientific SelectScreen (plus Nanosyn / Reaction Biology for CDK/cyclin lines)
Text: as §1

NS(=O)(=O)c1ccc(Nc2ncc3cc4n(c3n2)C2(CCCCC2)C(=O)NN4)cc1 [INX-315]
inhibition at 0.1 µM [1]: 35% | inhibition at 0.1 µM [2]: -2% | inhibition at 0.1 µM [3]: 94% | inhibition at 0.1 µM [4]: 0% | inhibition at 0.1 µM [5]: 17% | inhibition at 0.1 µM [6]: 4% | inhibition at 0.1 µM [7]: 49% | inhibition at 0.1 µM [8]: 4% | inhibition at 0.1 µM [9]: 49% | inhibition at 0.1 µM [10]: 2% | inhibition at 0.1 µM [11]: 36% | % Inhibition Avg [12]: 36% | inhibition at 0.1 µM [13]: 0% | inhibition at 0.1 µM [14]: 12% | inhibition at 0.1 µM [15]: 45% | inhibition at 0.1 µM [16]: 13% | inhibition at 0.1 µM [17]: 2% | inhibition at 0.1 µM [18]: 4% | inhibition at 0.1 µM [19]: 21% | inhibition at 0.1 µM [20]: 7% | inhibition at 0.1 µM [21]: 15% | inhibition at 0.1 µM [22]: 34% | inhibition at 0.1 µM [23]: 17% | inhibition at 0.1 µM [24]: -2% | inhibition at 0.1 µM [25]: 1% | inhibition at 0.1 µM [26]: 22% | inhibition at 0.1 µM [27]: 35% | inhibition at 0.1 µM [28]: 7% | inhibition at 0.1 µM [29]: 28% | inhibition at 0.1 µM [30]: 12% | inhibition at 0.1 µM [31]: 3% | inhibition at 0.1 µM [32]: -12% | inhibition at 0.1 µM [33]: -1% | inhibition at 0.1 µM [34]: 13% | inhibition at 0.1 µM [35]: 6% | inhibition at 0.1 µM [36]: 31% | inhibition at 0.1 µM [37]: -1% | inhibition at 0.1 µM [38]: 34%
